Data from patent US8546343B2, “Aminoglycoside antibiotics targeting bacterial 16S ribosomal RNA” (Eidgenoessische Technische Hochschule Zurich, priority 2007, dated 2013).
In brackets after ≈: the same amount, converted by molar mass.

How the values were obtained:
[1] = system: AG011 Staph. aureus clinical isolate; test: Standard MIC assay, AG011; format: cell-based, Staphylococcus aureus
Description: (§1) Selected compounds of the present invention were tested for antibiotic susceptibility using clinical isolates of Staphylococci, Enterococci and Escherichia coli as well as strains carrying defined resistance determinants and compared to well known antibiotics of the state of the art. Drug susceptibility was determined in standard MIC assays, i.e. by determination of the minimal drug concentration required to inhibit bacterial growth in vitro.

[2] = system: AG017 E. faecalis JH2-2; test: Standard MIC assay, AG017; format: cell-based, Enterococcus faecalis
Description: as §1

[3] = system: AG007 E. coli BM13 (AAC3); test: Standard MIC assay, AG007; format: cell-based, Escherichia coli; conditions: for Minimal inhibitory concentrations AG007: E. coli BM13 (AAC3)
Description: as §1

[4] = system: M. smegmatis ΔrrnB 1491A (16S rRNA position 1491 A, eukaryotic cytosolic ribosomes); test: MIC, recombinant M. smegmatis with mutant ribosomes 1491A; format: cell-based, Mycobacterium smegmatis; conditions: M. smegmatis ΔrrnB 1491A mutant ribosomes; 72 h at 37° C.
Procedure, shortened: (§2)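 M. smegmatis single-rRNA-operon strain carrying the indicated 16S rRNA decoding-site alleles, introduced into the chromosomal operon and confirmed by sequencing. Colony-purified cultures were grown in LB with 0.05% Tween 80 and started at OD600 0.025. MIC was read in microtiter format against twofold drug dilutions.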

[5] = system: AG019 E. faecalis JH2-2 (APH2″ AAC6′); test: Standard MIC assay, AG019; format: cell-based, Enterococcus faecalis; conditions: for Minimal inhibitory concentrations AG019: E. faecalis JH2-2 (APH2″ AAC6′)
Description: as §1

[6] = system: AG015 S. aureus BM3002 (ANT4′); test: Standard MIC assay, AG015; format: cell-based, Staphylococcus aureus; conditions: for Minimal inhibitory concentrations AG015: S. aureus BM3002 (ANT4′)
Description: as §1

[7] = system: AG008 E. coli BM13 (ANT2″); test: Standard MIC assay, AG008; format: cell-based, Escherichia coli; conditions: for Minimal inhibitory concentrations AG008: E. coli BM13 (ANT2″)
Description: as §1

[8] = system: AG001 E. coli clinical isolate; test: Standard MIC assay, AG001; format: cell-based, Escherichia coli
Description: as §1

[9] = system: M. smegmatis ΔrrnB 1408G (16S rRNA position 1408 G, eukaryotic cytosolic ribosomes); test: MIC, recombinant M. smegmatis with mutant ribosomes 1408G; format: cell-based, Mycobacterium smegmatis; conditions: M. smegmatis ΔrrnB 1408G mutant ribosomes; 72 h at 37° C.
Procedure, shortened: as §2

[10] = system: AG002 E. coli clinical isolate; test: Standard MIC assay, AG002; format: cell-based, Escherichia coli
Description: as §1

[11] = system: AG016 S. aureus BM3002; test: Standard MIC assay, AG016; format: cell-based, Staphylococcus aureus
Description: as §1

[12] = system: M. smegmatis ΔrrnB (bacterial ribosomes); test: MIC, recombinant M. smegmatis with bacterial (wild-type) ribosomes; format: cell-based, Mycobacterium smegmatis; conditions: 72 h at 37° C.
Procedure, shortened: as §2

[13] = system: AG009 E. coli BM13 AAC(6′)-1B; test: Standard MIC assay, AG009; format: cell-based, Escherichia coli; conditions: for Minimal inhibitory concentrations AG009: E. coli BM13 AAC(6′)-1B
Description: as §1

[14] = system: AG006 E. coli BM13; test: Standard MIC assay, AG006; format: cell-based, Escherichia coli
Description: as §1

[15] = system: M. smegmatis ΔrrnB 1491C (16S rRNA position 1491 C, eukaryotic mitochondrial ribosome); test: MIC, recombinant M. smegmatis with mutant ribosomes 1491C; format: cell-based, Mycobacterium smegmatis; conditions: M. smegmatis ΔrrnB 1491C mutant ribosomes; 72 h at 37° C.
Procedure, shortened: as §2

[16] = system: AG003 E. coli clinical isolate; test: Standard MIC assay, AG003; format: cell-based, Escherichia coli
Description: as §1

[17] = system: AG014 Staph. epi. clinical isolate; test: Standard MIC assay, AG014; format: cell-based, Staphylococcus epidermidis
Description: as §1

[18] = system: AG004 E. coli clinical isolate; test: Standard MIC assay, AG004; format: cell-based, Escherichia coli
Description: as §1

[19] = system: AG013 Staph. epi. clinical isolate; test: Standard MIC assay, AG013; format: cell-based, Staphylococcus epidermidis
Description: as §1

SMILES | Minimal inhibitory concentrations AG011 [1] [µg/mL] | Minimal inhibitory concentrations AG017 [2] [µg/mL] | Minimal inhibitory concentrations AG007 [3] [µg/mL] | minimal inhibitory concentrations ΔrrnB 1491A [4] | Minimal inhibitory concentrations AG019 [5] [µg/mL] | Minimal inhibitory concentrations AG015 [6] [µg/mL] | Minimal inhibitory concentrations AG008 [7] [µg/mL] | Minimal inhibitory concentrations AG001 [8] [µg/mL] | minimal inhibitory concentrations ΔrrnB 1408G [9] | Minimal inhibitory concentrations AG002 [10] [µg/mL] | Minimal inhibitory concentrations AG016 [11] [µg/mL] | minimal inhibitory concentrations ΔrrnB [12] [µg/mL] | Minimal inhibitory concentrations AG009 [13] [µg/mL] | Minimal inhibitory concentrations AG006 [14] [µg/mL] | minimal inhibitory concentrations ΔrrnB 1491C [15] | Minimal inhibitory concentrations AG003 [16] [µg/mL] | Minimal inhibitory concentrations AG014 [17] [µg/mL] | Minimal inhibitory concentrations AG004 [18] [µg/mL] | Minimal inhibitory concentrations AG013 [19] [µg/mL] | also measured
NC[C@@H]1O[C@H](O[C@H]2[C@@H](O)[C@H](O[C@@H]3[C@@H](O)[C@H](N)C[C@H](N)[C@H]3O[C@H]3O[C@@H]4COC(C=Cc5ccccc5)O[C@H]4[C@H](O)[C@H]3N)O[C@@H]2CO)[C@H](N)[C@@H](O)[C@@H]1O (stereo partly shown) [Compound 5.26, 4′,6′-O-(3-Phenyl)-propenylideneparomomycin] | 4 (≈ 5.48 µM) | 16 to 32 | 32 (≈ 43.8 µM) | ≧512 μg/ml | 64 to 128 | 16 to 32 | 32 (≈ 43.8 µM) | 32 to 64 | ≧512 μg/ml | 64 (≈ 87.7 µM) | 8 (≈ 11 µM) | 2 to 4 | 128 (≈ 175 µM) | 32 (≈ 43.8 µM) | ≧512 μg/ml | 32 (≈ 43.8 µM) | 4 (≈ 5.48 µM) | 32 (≈ 43.8 µM) | 4 to 8 | –
NC[C@@H]1O[C@H](O[C@H]2[C@@H](O)[C@H](O[C@@H]3[C@@H](O)[C@H](N)C[C@H](N)[C@H]3O[C@H]3O[C@@H]4CO[C@@H](CCc5ccccc5)O[C@H]4[C@H](O)[C@H]3N)O[C@@H]2CO)[C@H](N)[C@@H](O)[C@@H]1O [Compound 5.25, 4′,6′-O-(3-Phenyl)-propylideneparomomycin] | 4 (≈ 5.47 µM) | 8 (≈ 10.9 µM) | 16 to 32 | ≧512 μg/ml | 32 (≈ 43.7 µM) | 8 to 16 | 32 (≈ 43.7 µM) | 32 to 64 | 512 µg/mL | 32 to 64 | 8 (≈ 10.9 µM) | 1 | 64 to 128 | 16 to 32 | ≧512 μg/ml | 32 (≈ 43.7 µM) | 4 (≈ 5.47 µM) | 32 (≈ 43.7 µM) | 4 to 8 | –
NC[C@@H]1O[C@H](O[C@H]2[C@@H](O)[C@H](O[C@@H]3[C@@H](O)[C@H](N)C[C@H](N)[C@H]3O[C@H]3O[C@@H]4CO[C@@H](c5ccccc5)O[C@H]4[C@H](O)[C@H]3N)O[C@@H]2CO)[C@H](N)[C@@H](O)[C@@H]1O [Compound 5.1, 4′,6′-O-benzylideneparomomycin] | 8 (≈ 11.4 µM) | 32 to 64 | 32 (≈ 45.5 µM) | 512 µg/mL | 256 (≈ 364 µM) | 32 to 64 | 32 (≈ 45.5 µM) | 64 (≈ 90.9 µM) | 512 µg/mL | 64 (≈ 90.9 µM) | 16 to 32 | 4 | 128 (≈ 182 µM) | 32 (≈ 45.5 µM) | >512 µg/mL | 32 (≈ 45.5 µM) | 8 (≈ 11.4 µM) | 32 to 64 | 8 to 16 | –
NCC1OC(OC2C(CO)OC(OC3C(O)C(N)CC(N)C3OC3OC(CO)C(OCc4ccccc4)C(O)C3N)C2O)C(N)C(O)C1O (stereo not shown) [Compound 11, 4′-O-Benzylparomomycin] | – | – | – | ≧512 μg/ml | – | – | – | – | >512 µg/mL | – | – | 4 | – | – | >512 µg/mL | – | – | – | – | MIC ([1]; Staphylococcus aureus, read-out: Minimal inhibitory concentrations AG011): 8 µg/mL (≈ 11.3 µM); MIC ([2]; Enterococcus faecalis, read-out: Minimal inhibitory concentrations AG017): 32 to 64 µg/mL (≈ 45.3 to 90.7 µM); MIC ([3]; Escherichia coli, read-out: Minimal inhibitory concentrations AG007): 32 µg/mL (≈ 45.3 µM); MIC ([5]; Enterococcus faecalis, read-out: Minimal inhibitory concentrations AG019): > 256 µg/mL; MIC ([6]; Staphylococcus aureus, read-out: Minimal inhibitory concentrations AG015): 32 µg/mL (≈ 45.3 µM); MIC ([7]; Escherichia coli, read-out: Minimal inhibitory concentrations AG008): 64 to 128 µg/mL (≈ 90.7 to 181 µM); MIC ([8]; Escherichia coli, read-out: Minimal inhibitory concentrations AG001): 64 µg/mL (≈ 90.7 µM); MIC ([10]; Escherichia coli, read-out: Minimal inhibitory concentrations AG002): 32 to 64 µg/mL (≈ 45.3 to 90.7 µM); MIC ([11]; Staphylococcus aureus, read-out: Minimal inhibitory concentrations AG016): 16 to 32 µg/mL (≈ 22.7 to 45.3 µM); MIC ([13]; Escherichia coli, read-out: Minimal inhibitory concentrations AG009): 64 to 128 µg/mL (≈ 90.7 to 181 µM); MIC ([14]; Escherichia coli, read-out: Minimal inhibitory concentrations AG006): 32 µg/mL (≈ 45.3 µM); MIC ([16]; Escherichia coli, read-out: Minimal inhibitory concentrations AG003): 32 to 64 µg/mL (≈ 45.3 to 90.7 µM); MIC ([17]; Staphylococcus epidermidis, read-out: Minimal inhibitory concentrations AG014): 8 µg/mL (≈ 11.3 µM); MIC ([18]; Escherichia coli, read-out: Minimal inhibitory concentrations AG004): 64 µg/mL (≈ 90.7 µM); MIC ([19]; Staphylococcus epidermidis, read-out: Minimal inhibitory concentrations AG013): 16 µg/mL (≈ 22.7 µM)
